Calls of active or inactive are those of the source. The rule behind the calls is not given here.
Tests used:
[1] = Inhibition of PI3K-mediated mTOR pathway by Western blot analysis
[2] = molecular target: Proto-oncogene tyrosine-protein kinase receptor Ret (Homo sapiens) (UniProt P07949); assay: Inhibition of RET at 10 uM
[3] = molecular target: Vascular endothelial growth factor receptor 2 (Homo sapiens) (UniProt P35968); conditions: at 10 µM
Description: Inhibition of KDR at 10 uM

[4] = molecular target: Hepatocyte growth factor receptor (Homo sapiens) (UniProt P08581); assay: Inhibition of c-Met at 10 uM
[5] = molecular target: T1, Ephrin type-B receptor 2 (Homo sapiens) (UniProt P29323); assay: Inhibition of EPH-B2 at 10 uM
T1 sequence (whole entry): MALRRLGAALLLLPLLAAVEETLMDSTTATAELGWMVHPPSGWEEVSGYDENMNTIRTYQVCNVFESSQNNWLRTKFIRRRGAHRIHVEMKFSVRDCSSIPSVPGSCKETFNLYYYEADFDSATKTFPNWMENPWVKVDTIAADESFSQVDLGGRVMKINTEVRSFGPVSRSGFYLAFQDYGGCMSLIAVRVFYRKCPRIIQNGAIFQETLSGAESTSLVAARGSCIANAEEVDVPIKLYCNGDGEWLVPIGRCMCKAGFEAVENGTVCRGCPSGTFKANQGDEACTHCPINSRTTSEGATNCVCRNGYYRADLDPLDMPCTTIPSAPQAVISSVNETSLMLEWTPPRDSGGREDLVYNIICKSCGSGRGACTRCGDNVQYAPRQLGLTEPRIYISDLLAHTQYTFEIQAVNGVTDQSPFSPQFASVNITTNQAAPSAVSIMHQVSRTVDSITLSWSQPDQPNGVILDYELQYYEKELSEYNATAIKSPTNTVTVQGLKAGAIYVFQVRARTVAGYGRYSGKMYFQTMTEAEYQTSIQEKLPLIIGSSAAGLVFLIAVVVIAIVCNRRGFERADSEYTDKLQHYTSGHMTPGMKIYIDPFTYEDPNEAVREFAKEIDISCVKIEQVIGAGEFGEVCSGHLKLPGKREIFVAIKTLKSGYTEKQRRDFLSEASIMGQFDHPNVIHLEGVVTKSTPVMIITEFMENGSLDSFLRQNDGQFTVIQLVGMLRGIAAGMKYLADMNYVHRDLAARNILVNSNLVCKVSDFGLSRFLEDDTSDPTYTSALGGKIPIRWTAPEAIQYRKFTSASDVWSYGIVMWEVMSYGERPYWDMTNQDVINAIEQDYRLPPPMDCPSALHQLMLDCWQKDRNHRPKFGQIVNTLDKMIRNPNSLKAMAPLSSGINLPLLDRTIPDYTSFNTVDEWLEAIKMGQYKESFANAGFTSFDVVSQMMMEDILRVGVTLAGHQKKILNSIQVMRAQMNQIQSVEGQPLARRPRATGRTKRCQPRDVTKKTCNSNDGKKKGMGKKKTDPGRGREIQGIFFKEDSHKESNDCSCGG

[6] = Cell cycle arrest in human Rh30 cells assessed as increase in G1 cell population at 1 to 10 uM by flow cytometric analysis; type: functional, cell-based; conditions: SJRH30
[7] = system: HT-29; assay: Antiproliferative activity against human HT-29 cells; type: functional, cell-based
[8] = molecular target: Proto-oncogene tyrosine-protein kinase Src (Homo sapiens) (UniProt P12931); conditions: at 10 µM
Description: Inhibition of c-Src at 10 uM

[9] = molecular target: Platelet-derived growth factor receptor alpha (Homo sapiens) (UniProt P16234); assay: Inhibition of PDGFRalpha at 10 uM
Sequence of Platelet-derived growth factor receptor alpha (Homo sapiens) (P16234 whole entry, canonical isoform): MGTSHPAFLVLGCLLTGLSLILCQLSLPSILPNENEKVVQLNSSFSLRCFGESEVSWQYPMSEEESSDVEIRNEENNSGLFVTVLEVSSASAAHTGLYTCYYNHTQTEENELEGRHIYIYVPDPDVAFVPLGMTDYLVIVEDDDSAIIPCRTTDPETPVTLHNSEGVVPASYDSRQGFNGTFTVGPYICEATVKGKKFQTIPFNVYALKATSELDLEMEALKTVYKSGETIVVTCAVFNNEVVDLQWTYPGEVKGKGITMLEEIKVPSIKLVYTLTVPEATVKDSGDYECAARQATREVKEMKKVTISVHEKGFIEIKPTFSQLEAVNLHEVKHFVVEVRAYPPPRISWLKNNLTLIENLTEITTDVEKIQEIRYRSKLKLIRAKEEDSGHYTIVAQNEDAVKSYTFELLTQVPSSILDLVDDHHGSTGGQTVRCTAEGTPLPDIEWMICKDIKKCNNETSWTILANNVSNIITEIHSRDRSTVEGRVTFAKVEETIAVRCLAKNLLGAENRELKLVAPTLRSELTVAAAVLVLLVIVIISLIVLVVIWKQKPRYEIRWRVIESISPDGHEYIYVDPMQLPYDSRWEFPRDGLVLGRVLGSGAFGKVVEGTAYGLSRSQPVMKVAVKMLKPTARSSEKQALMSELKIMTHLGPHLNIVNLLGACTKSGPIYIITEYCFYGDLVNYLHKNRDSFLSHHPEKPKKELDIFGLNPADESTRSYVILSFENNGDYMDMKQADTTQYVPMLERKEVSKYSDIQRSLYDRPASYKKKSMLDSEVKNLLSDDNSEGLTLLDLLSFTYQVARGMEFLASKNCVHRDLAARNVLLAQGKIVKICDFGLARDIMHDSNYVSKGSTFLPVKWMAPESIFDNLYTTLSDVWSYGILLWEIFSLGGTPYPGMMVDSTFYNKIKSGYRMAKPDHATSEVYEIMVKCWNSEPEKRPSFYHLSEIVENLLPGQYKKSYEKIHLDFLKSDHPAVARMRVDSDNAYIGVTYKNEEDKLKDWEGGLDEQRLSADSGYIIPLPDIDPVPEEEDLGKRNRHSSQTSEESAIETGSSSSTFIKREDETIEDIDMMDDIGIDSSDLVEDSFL

[10] = molecular target: Phosphatidylinositol 4,5-bisphosphate 3-kinase catalytic subunit alpha isoform (Homo sapiens, UniProt P42336); assay: Inhibition of PI3Kalpha by luminescent kinase assay
[11] = molecular target: Macrophage-stimulating protein receptor (Homo sapiens) (UniProt Q04912); assay: Inhibition of RON at 10 uM
Sequence of Macrophage-stimulating protein receptor (Homo sapiens) (Q04912 25-304 limits assumed): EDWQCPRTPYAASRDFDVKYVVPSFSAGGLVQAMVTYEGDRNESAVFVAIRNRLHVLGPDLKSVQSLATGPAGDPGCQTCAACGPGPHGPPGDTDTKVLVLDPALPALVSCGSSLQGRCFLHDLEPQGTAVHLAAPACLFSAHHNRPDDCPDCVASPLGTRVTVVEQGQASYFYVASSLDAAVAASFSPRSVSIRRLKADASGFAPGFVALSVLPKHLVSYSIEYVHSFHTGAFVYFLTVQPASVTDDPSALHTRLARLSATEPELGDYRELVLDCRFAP
Sequence of Macrophage-stimulating protein receptor (Homo sapiens) (Q04912 310-1400 limits assumed): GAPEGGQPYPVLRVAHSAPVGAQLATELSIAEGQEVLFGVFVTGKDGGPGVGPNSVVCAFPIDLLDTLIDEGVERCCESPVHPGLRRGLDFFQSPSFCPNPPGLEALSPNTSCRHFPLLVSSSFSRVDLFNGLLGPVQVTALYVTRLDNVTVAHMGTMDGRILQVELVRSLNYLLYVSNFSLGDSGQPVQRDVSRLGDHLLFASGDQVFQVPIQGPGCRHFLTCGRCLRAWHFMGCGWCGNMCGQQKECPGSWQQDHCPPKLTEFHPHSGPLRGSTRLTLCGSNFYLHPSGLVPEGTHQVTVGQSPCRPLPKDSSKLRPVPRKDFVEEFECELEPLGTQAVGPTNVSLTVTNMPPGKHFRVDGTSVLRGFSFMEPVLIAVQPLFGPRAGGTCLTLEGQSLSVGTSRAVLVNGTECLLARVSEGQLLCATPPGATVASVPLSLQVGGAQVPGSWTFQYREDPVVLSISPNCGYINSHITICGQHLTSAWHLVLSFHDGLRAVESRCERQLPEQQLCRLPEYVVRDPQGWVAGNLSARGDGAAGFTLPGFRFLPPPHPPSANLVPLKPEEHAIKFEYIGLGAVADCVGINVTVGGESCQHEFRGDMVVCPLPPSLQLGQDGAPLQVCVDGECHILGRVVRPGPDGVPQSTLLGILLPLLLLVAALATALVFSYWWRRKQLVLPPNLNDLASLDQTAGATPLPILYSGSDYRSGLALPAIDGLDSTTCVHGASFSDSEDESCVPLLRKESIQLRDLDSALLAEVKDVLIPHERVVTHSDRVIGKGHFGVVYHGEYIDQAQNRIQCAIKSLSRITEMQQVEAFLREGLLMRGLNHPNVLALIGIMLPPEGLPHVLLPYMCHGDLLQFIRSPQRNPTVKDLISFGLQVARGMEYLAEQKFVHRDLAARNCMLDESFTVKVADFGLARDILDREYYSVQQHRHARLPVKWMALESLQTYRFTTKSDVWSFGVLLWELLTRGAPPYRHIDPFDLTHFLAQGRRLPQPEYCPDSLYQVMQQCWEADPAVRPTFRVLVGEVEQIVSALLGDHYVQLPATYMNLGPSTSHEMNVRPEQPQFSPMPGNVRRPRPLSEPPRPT

[12] = Inhibition of PI3K-mediated Akt pathway by Western blot analysis
[13] = molecular target: Mast/stem cell growth factor receptor Kit (Homo sapiens) (UniProt P10721); assay: Inhibition of c-Kit at 10 uM
[14] = Antiproliferative activity against human BEL-7402 cells
[15] = Cell cycle arrest in human Rh30 cells assessed as increase in subG1 cell phase at 10 uM by flow cytometric analysis; type: functional, cell-based; conditions: SJRH30
[16] = molecular target: Platelet-derived growth factor receptor beta (Homo sapiens) (UniProt P09619); assay: Inhibition of PDGFRbeta at 10 uM
Sequence of Platelet-derived growth factor receptor beta (Homo sapiens) (P09619 whole entry): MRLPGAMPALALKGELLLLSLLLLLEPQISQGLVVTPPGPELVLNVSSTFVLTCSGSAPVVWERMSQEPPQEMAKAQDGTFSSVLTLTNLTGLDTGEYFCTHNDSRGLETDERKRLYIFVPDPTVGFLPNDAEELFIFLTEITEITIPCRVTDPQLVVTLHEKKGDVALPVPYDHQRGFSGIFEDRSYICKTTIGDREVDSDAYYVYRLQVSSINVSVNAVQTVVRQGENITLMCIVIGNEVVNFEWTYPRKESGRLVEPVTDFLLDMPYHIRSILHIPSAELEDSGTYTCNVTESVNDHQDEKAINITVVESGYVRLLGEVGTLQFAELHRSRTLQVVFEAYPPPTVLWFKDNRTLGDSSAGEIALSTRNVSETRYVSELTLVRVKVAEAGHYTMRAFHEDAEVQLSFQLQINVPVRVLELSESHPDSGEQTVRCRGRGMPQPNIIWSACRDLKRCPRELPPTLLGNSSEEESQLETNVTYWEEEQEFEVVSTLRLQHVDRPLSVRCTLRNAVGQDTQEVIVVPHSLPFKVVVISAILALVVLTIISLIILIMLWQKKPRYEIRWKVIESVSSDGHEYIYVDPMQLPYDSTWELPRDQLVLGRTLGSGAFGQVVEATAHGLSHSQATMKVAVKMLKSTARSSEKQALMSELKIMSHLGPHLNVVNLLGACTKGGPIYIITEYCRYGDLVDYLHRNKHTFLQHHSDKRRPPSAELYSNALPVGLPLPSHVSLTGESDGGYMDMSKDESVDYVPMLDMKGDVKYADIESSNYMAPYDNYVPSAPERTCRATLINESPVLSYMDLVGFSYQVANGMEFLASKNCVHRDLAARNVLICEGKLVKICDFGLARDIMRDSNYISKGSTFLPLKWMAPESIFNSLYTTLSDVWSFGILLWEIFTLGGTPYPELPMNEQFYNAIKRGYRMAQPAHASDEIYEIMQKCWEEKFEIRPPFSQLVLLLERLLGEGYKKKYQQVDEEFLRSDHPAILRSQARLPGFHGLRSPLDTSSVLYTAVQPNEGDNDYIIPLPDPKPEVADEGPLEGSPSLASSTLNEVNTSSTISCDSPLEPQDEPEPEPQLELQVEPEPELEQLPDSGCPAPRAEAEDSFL

[17] = system: ECV-304; assay: Antiproliferative activity against human ECV304 cells; type: functional, cell-based
[18] = molecular target: Receptor tyrosine-protein kinase erbB-2 (Homo sapiens) (UniProt P04626); assay: Inhibition of ErbB2 at 10 uM
[19] = system: MCF7; assay: Antiproliferative activity against human MCF7 cells; type: functional, cell-based
[20] = molecular target: Insulin-like growth factor 1 receptor (Homo sapiens) (UniProt P08069); assay: Inhibition of IGF1R at 10 uM
Sequence of Insulin-like growth factor 1 receptor (Homo sapiens) (P08069 31-736 limits assumed): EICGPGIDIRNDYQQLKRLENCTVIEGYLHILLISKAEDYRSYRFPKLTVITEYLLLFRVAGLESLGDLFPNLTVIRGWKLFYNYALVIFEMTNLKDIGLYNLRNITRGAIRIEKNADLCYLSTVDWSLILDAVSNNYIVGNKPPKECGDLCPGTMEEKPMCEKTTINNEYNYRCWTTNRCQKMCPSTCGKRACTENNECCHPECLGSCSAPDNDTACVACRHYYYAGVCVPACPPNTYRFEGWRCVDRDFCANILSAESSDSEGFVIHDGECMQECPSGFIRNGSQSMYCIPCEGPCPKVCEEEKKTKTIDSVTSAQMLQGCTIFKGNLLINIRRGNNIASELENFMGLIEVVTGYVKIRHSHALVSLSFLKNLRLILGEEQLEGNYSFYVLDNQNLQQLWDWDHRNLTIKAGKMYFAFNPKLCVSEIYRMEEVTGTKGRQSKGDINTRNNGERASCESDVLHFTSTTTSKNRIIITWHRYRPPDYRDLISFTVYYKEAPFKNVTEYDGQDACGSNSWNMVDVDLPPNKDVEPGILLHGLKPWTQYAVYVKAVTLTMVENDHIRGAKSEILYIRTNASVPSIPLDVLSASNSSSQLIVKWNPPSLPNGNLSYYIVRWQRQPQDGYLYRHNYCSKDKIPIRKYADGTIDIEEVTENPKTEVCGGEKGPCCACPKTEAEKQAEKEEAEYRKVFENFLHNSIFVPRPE
Sequence of Insulin-like growth factor 1 receptor (Homo sapiens) (P08069 741-1367 limits assumed): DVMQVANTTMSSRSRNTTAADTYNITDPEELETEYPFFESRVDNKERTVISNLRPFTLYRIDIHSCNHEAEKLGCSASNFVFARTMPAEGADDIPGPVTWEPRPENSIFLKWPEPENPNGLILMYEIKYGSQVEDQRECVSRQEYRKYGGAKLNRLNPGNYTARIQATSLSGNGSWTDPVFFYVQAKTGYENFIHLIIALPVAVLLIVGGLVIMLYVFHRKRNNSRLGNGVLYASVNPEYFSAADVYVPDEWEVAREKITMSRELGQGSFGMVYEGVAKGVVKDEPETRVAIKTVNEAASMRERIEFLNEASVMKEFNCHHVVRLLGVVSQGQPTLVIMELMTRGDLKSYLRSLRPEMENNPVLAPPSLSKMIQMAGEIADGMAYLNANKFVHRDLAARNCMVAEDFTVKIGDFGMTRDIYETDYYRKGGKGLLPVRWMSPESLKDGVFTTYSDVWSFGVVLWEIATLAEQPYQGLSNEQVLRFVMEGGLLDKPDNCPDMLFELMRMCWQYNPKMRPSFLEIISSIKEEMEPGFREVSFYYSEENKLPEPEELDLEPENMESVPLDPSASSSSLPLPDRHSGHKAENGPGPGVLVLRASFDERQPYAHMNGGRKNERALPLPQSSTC

[21] = Inhibition of PI3K-mediated Akt phosphorylation at Ser473 at 3 uM by Western blot analysis
[22] = molecular target: Epidermal growth factor receptor (Homo sapiens) (UniProt P00533); conditions: at 10 µM
Description: Inhibition of EGFR at 10 uM

[23] = Inhibition of PI3K-mediated p70S6K1 phosphorylation at Thr389 at 3 uM by Western blot analysis

Row | mTOR pathway inhibition (qualitative) [1] | inhibition [2] [%] | inhibition [3] [%] | inhibition [4] [%] | inhibition [5] [%] | IC50 [7] [µM] | inhibition [8] [%] | inhibition [9] [%] | IC50 [10] [µM] | inhibition [11] [%] | Akt pathway inhibition (qualitative) [12] | inhibition [13] [%] | IC50 [14] [µM] | inhibition [16] [%] | inhibition [18] [%] | IC50 [19] [µM] | inhibition [20] [%] | SMILES | Activity [6] | Activity [15] | IC50 [17] [µM] | also measured
1 | Dose-dependent effect | 43 | 25 | 31.7 | 48.6 | 30.4 | 52.8 | 13 | 0.544 | 17.6 | Dose-dependent effect | 29 | 8.6 | 11.8 | 12.5 | 18.7 | 23.7 | CCC(=O)Oc1cccc(-c2nc(N3CCOCC3)c3cc4ncccc4n3n2)c1 | Active | Active | 4 | inhibition [21]: Active; inhibition [22]: 26.8%; inhibition [23]: Active
2 | – | – | – | – | 89.2 | – | – | – | – | – | – | – | – | – | – | – | – | Cc1nc(Nc2ncc(C(=O)Nc3c(C)cccc3Cl)s2)cc(N2CCN(CCO)CC2)n1 | – | – | – | –
3 | Dose-dependent effect | 25.8 | 25.6 | 33.9 | 53 | 16.4 | 48.2 | 14 | 0.511 | 7.4 | Dose-dependent effect | 25.4 | 3.6 | 5.1 | 12.5 | 6.1 | 15.6 | CCCC(=O)Oc1cccc(-c2nc(N3CCOCC3)c3cc4ncccc4n3n2)c1 | Active | Active | 1.4 | inhibition [21]: Active; inhibition [22]: 16%; inhibition [23]: Active
4 | – | – | – | – | – | > 50 | – | – | – | – | – | – | 7 | – | – | 22.4 | – | Oc1cccc(-c2nc(N3CCOCC3)c3oc4ncccc4c3n2)c1 [PI-103] | Active | – | 6.3 | –

The next lines start with the compound.

Row | SMILES | mTOR pathway inhibition (qualitative) [1] | inhibition [2] [%] | inhibition [3] [%] | inhibition [4] [%] | inhibition [5] [%] | IC50 [7] [µM] | inhibition [8] [%] | inhibition [9] [%] | IC50 [10] [µM] | inhibition [11] [%] | Akt pathway inhibition (qualitative) [12] | inhibition [13] [%] | IC50 [14] [µM] | inhibition [16] [%] | inhibition [18] [%] | IC50 [19] [µM] | inhibition [20] [%] | Activity [6] | Activity [15] | IC50 [17] [µM] | also measured
5 | O=C(Oc1cccc(-c2nc(N3CCOCC3)c3cc4ncccc4n3n2)c1)c1ccncc1 | Dose-dependent effect | 28.9 | 35.4 | 34.8 | 53.8 | 28 | 67.2 | 40 | 0.421 | 27.2 | Dose-dependent effect | 45.2 | 13.3 | 34.7 | 23.3 | 20 | 39.8 | Active | Active | 10 | inhibition [21]: inactive; inhibition [22]: 6.2%; inhibition [23]: inactive
6 | CCCC(CCC)C(=O)Oc1cccc(-c2nc(N3CCOCC3)c3cc4ncccc4n3n2)c1 | Dose-dependent effect | 14.4 | 29.1 | 29 | 49.2 | 37.5 | 49.8 | 28.7 | 0.0607 | 23.1 | Dose-dependent effect | 24.9 | 5.6 | 13.6 | 25.6 | 7.3 | 32.7 | Active | Active | 2.5 | inhibition [21]: Active; inhibition [22]: 20.2%; inhibition [23]: Active
7 | CC(=O)Oc1cccc(-c2nc(N3CCOCC3)c3cc4ncccc4n3n2)c1 | Dose-dependent effect | 19 | 23.1 | 29 | 37.2 | > 50 | 40 | 21.8 | 0.0497 | 9.4 | Dose-dependent effect | 24.7 | 12.1 | 0 | 7.1 | 14.4 | 33.4 | Active | Active | 3.8 | inhibition [21]: Active; inhibition [22]: 4.6%; inhibition [23]: Active
8 | CCN(CC)CCNC(=O)c1c(C)[nH]c(/C=C2\C(=O)Nc3ccc(F)cc32)c1C | – | 84.8 | – | – | – | – | – | 93 | – | – | – | 84.8 | – | 90.6 | – | – | – | – | – | – | –
9 | N#C/C(=C\c1ccc(O)c(O)c1)C(=O)c1ccc(O)c(O)c1 | – | – | – | – | – | – | – | – | – | – | – | – | – | – | – | – | 82.2 | – | – | – | –
10 | O=C(Oc1cccc(-c2nc(N3CCOCC3)c3cc4ncccc4n3n2)c1)c1ccco1 | Dose-dependent effect | 22.8 | 24.7 | 32.5 | 35.8 | 21.6 | 47.9 | 22.2 | 0.425 | 4.2 | Dose-dependent effect | 26.9 | 9.3 | 13.5 | 23.6 | 12.8 | 29.2 | Active | Active | 6 | inhibition [21]: inactive; inhibition [22]: 11.8%; inhibition [23]: inactive
11 | Oc1cccc(-c2nc(N3CCOCC3)c3cc4ncccc4n3n2)c1 | Dose-dependent effect | 37.8 | 39.2 | 43.8 | 44 | 22.3 | 65.3 | 41.2 | 0.0336 | 37 | Dose-dependent effect | 49.4 | 13.1 | 42.4 | 10.9 | 22.7 | 35.2 | Active | Active | 6.7 | inhibition [21]: Active; inhibition [22]: 17.4%; inhibition [23]: Active
12 | Cc1[nH]c(/C=C2\C(=O)Nc3ccc(S(=O)(=O)N(C)c4cccc(Cl)c4)cc32)c(C)c1C(=O)N1CCN(C)CC1 | – | – | – | 61.8 | – | – | – | – | – | 52.2 | – | – | – | – | – | – | – | – | – | – | –
13 | C=CC(=O)Oc1cccc(-c2nc(N3CCOCC3)c3cc4ncccc4n3n2)c1 | Dose-dependent effect | 31.9 | 28.4 | 32.8 | 53.4 | 29.9 | 56.2 | 29.4 | 0.0478 | 3.3 | Dose-dependent effect | 18.9 | 7.9 | 6.3 | 21.3 | 15.3 | 41.1 | Active | Active | 4 | inhibition [21]: Active; inhibition [22]: 17.8%; inhibition [23]: Active
14 | CS(=O)(=O)CCNCc1ccc(-c2ccc3ncnc(Nc4ccc(OCc5cccc(F)c5)c(Cl)c4)c3c2)o1 | – | – | – | – | – | – | – | – | – | – | – | – | – | – | 78 | – | – | – | – | – | –
